Source: US4438115A, “Compositions and methods for treating diseases in circulatory organs” (Chugai Seiyaku Kabushiki Kaisha, priority 1980, dated 1984)
Counter-ions that a name gives are not always drawn.

Tests used:
[1] = tested on: systemic blood pressure; assay: Reduction of systemic blood pressure (Experiment 2(a)); assay type: in vivo, beagle (anesthetized); conditions: intravenous; for inhibition in vivo at 0.025 mg/kg: Canis lupus familiaris, Table 2, read-out: Average percent reduction in blood pressure; for Average low pressure retention time: Table 3
Experimental: A beagle was anesthetized by intravenous injection of sodium pentobarbital and under artificial respiration an incision was made in the chest.
1. Systemic blood pressure (SBP): The SBP was measured by a pressure transducer that was connected to a catheter inserted into the right femoral artery.

[2] = tested on: heart rate; assay: Change in heart rate (Experiment 2(b)); assay type: in vivo, beagle (anesthetized); conditions: for Percent change in heart rate: Table 4, Experiment 2; for effect on heart rate (time course): in words
Experimental: A beagle was anesthetized by intravenous injection of sodium pentobarbital and under artificial respiration an incision was made in the chest. The various actions of Compounds 1, 2, 3, 5 and 7 of the present invention were checked by the following procedures:
2. Heart rate (HR): The HR was measured by a cardiotachometer using the pulse wave of blood pressure as trigger pulse.
As for the compounds of the present invention, a temporary increase was followed by a gradual decrease which started almost at the same time when a second phase reduction in blood pressure occurred (see FIG. 1).

[3] = tested on: blood pressure; assay: Blood pressure in unanesthetized SHR rats (Experiment 4); assay type: in vivo; conditions: oral, 10 mg/Kg; for blood pressure after dosing: 180±5.0 mmHg just before administration
Experimental: Unanesthetized SHR rats (five rats per group) were administered orally 10 mg/Kg of Compound 1.

[4] = tested on: systemic blood pressure; assay: Neurogenic hypertension by artery obstruction/stricture (Experiment 3); assay type: in vivo, beagle (hypertensive); conditions: intravenous, 25 μg/Kg; FIG. 2, FIG. 3
Experimental: Hypertension was induced in a beagle by exciting the sympathetic nerve due to an obstruction of the bilateral vertebral artery and right common carotid artery, as well as a stricture of the left common carotid artery. The beagle was treated intravenously with 25 μg/Kg of Compounds 1 and 2.

[5] = Acute toxicity, oral administration to rats for fourteen consecutive days; assay type: in vivo, male SD strain rats; conditions: 400 mg/Kg, as hydrochloride, male SD rats
Experimental: The acute toxicity of Compounds Preparation Nos. 1 to 15 was examined by the oral administration of them to male SD strain rats (five rats per group) for fourteen consecutive days. All compounds had low toxicity and none supressed weight gain. No rat died upon administration of Compound 1 or 2 (both as hydrochloride) in a dose of 400 mg/Kg.

NNc1nncc2ccccc12 [A, hydralazine hydrochloride, reference compound]
significant reduction in blood pressure ([1]; 25 μg/Kg, in words): did not exhibit significant reduction in blood pressure

COc1ccccc1N1CCN(CCCCCO)CC1 [B, reference compound]
inhibition in vivo at 0.025 mg/kg ([1]; 25 μg/kg): 16.1%
Average low pressure retention time ([1]; 25 μg/kg): 15.0 min
Percent change in heart rate [2]: 9.9%

COc1ccccc1N1CCN(CCCCCCO)CC1 [C, reference compound]
inhibition in vivo at 0.025 mg/kg ([1]; 25 μg/kg): 12.6%
Average low pressure retention time ([1]; 25 μg/kg): 14.4 min
Percent change in heart rate [2]: 8.1%

CCOC(=O)CCCCCCN1CCN(c2ccccc2OC)CC1 [Compound 1, 1-(6-ethoxycarbonylhexyl)-4-(o-methoxyphenyl)piperazine]
inhibition in vivo at 0.025 mg/kg ([1]; 25 μg/kg): 25.5%
Average low pressure retention time ([1]; 25 μg/kg): 47.3 min
change in systemic blood pressure (time course, FIG. 1) ([1]; 25 μg/kg, in words): the initial temporary reduction was followed by a reduction in the second phase, and the systemic blood pressure was maintained low thereafter
period of maintained low blood pressure compared with the others ([1]; 25 μg/kg, in words): maintained the blood pressure at low level for a longer period than did the others
Percent change in heart rate [2]: -9.6%
blood pressure after dosing ([3]; 1 h): 127±11.6 mmHg
blood pressure after dosing ([3]; 2 h): 137±7.6 mmHg
duration of reduced blood pressure ([3]; in words): maintained at the reduced level for a satisfactorily long time
extension of low pressure retention time, hypertensive vs normal beagle [4]: more effective
reduction of heart rate, hypertensive vs normal beagle [4]: more effective
reduction of systemic blood pressure, hypertensive vs normal beagle [4]: more effective
deaths upon administration [5]: No rat died

CCOC(=O)CCCCCN1CCN(c2ccccc2OC)CC1 [Compound 2, 1-(5-ethoxycarbonylpentyl)-4-(o-methoxyphenyl)piperazine]
inhibition in vivo at 0.025 mg/kg ([1]; 25 μg/kg): 22.4%
Average low pressure retention time ([1]; 25 μg/kg): 20.0 min
change in systemic blood pressure (time course, FIG. 1) ([1]; 25 μg/kg, in words): the initial temporary reduction was followed by a reduction in the second phase, and the systemic blood pressure was maintained low thereafter
Percent change in heart rate [2]: -1.6%
extension of low pressure retention time, hypertensive vs normal beagle [4]: more effective
reduction of heart rate, hypertensive vs normal beagle [4]: more effective
reduction of systemic blood pressure, hypertensive vs normal beagle [4]: more effective
deaths upon administration [5]: No rat died

CCOC(=O)CCCCCCN1CCN(c2ccccc2OC(C)C)CC1 [Compound 3, 1-(6-ethoxycarbonylhexyl)-4-(o-isopropyloxyphenyl)piperazine]
inhibition in vivo at 0.025 mg/kg ([1]; 25 μg/kg): 22.1%
Average low pressure retention time ([1]; 25 μg/kg): 22.4 min
Percent change in heart rate [2]: -4.0%

COC(=O)CCCCCCN1CCN(c2ccccc2OC)CC1 [Compound 5, 1-(6-methoxycarbonylhexyl)-4-(o-methoxyphenyl)piperazine]
inhibition in vivo at 0.025 mg/kg ([1]; 25 μg/kg): 23.1%
Average low pressure retention time ([1]; 25 μg/kg): 18.6 min
Percent change in heart rate [2]: -2.2%

CCOC(=O)CCCCN1CCN(c2ccccc2OC)CC1 [Compound 7, 1-(4-ethoxycarbonylbutyl)-4-(o-methoxyphenyl)piperazine]
inhibition in vivo at 0.025 mg/kg ([1]; 25 μg/kg): 19.1%
Average low pressure retention time ([1]; 25 μg/kg): 13.4 min
change in systemic blood pressure (time course, FIG. 1) ([1]; 25 μg/kg, in words): the initial temporary reduction was followed by a reduction in the second phase, and the systemic blood pressure was maintained low thereafter
Percent change in heart rate [2]: 13.2%

COc1ccccc1N1CCN(CCCCCCCO)CC1 [D, reference compound]
inhibition in vivo at 0.025 mg/kg ([1]; 25 μg/kg): 14.3%
Average low pressure retention time ([1]; 25 μg/kg): 22.5 min
Percent change in heart rate [2]: -9.1%

CCOC(=O)CCN1CCN(c2ccccc2OC)CC1 [E, reference compound]
inhibition in vivo at 0.025 mg/kg ([1]; 25 μg/kg): 15.1%
Average low pressure retention time ([1]; 25 μg/kg): 6.8 min
change in systemic blood pressure (time course, FIG. 1) ([1]; 25 μg/kg, in words): only temporary
Percent change in heart rate [2]: 16.8%
effect on heart rate (time course) [2]: first increased the heart rate and thereafter the increased heart rate gradually returned to the normal level

CCOC(=O)CCCN1CCN(c2ccccc2OC)CC1 [F, reference compound]
inhibition in vivo at 0.025 mg/kg ([1]; 25 μg/kg): 15.2%
Average low pressure retention time ([1]; 25 μg/kg): 8.8 min
change in systemic blood pressure (time course, FIG. 1) ([1]; 25 μg/kg, in words): only temporary
Percent change in heart rate [2]: 11.2%
effect on heart rate (time course) [2]: first increased the heart rate and thereafter the increased heart rate gradually returned to the normal level
